Assay in all cases: Antifungal MIC, broth dilution
Assay [1] concerns C. neoformans ATCC 34664. Type of assay: cell-based. The settings on record: Cryptococcus neoformans, ATCC34664, RPMI 1640 with MOPS, end point 48 hours, read-out: Cn01 MIC50.
Assay [2] deals with A. fumigatus ATCC 46645. Type of assay: cell-based. The settings on record: Aspergillus fumigatus, ATCC46645, RPMI 1640 with MOPS, end point 48 hours, read-out: Afm01 MIC50.
Assay [3] has as its system C. tropicalis ATCC 750. It is filed as cell-based. Particulars: Candida tropicalis, ATCC750, RPMI 1640 with MOPS, end point 48 hours, read-out: Ct01 MIC50.
In assay [4] the test system is A. niger ATCC 16404. It is filed as cell-based, Aspergillus niger. The settings on record: Aspergillus niger, ATCC16404, RPMI 1640 with MOPS, end point 48 hours, read-out: An01 MIC50. The method, then: (§1) The compounds of Formula 1 were tested for antifungal activity against Candida albicans, Aspergillus niger and Fusarium proliferatum. In vitro evaluation of antifungal activity was performed by determining the minimum inhibitory concentration (MIC) following standard methods (CLSI: Reference method for broth dilution antifungal susceptibility testing of yeasts; Approved standard, second edition M27-A2, 2002; CLSI: Reference method for broth dilution antifungal susceptibility testing of filamentous fungi; Approved standard M38-A, 2002). Anti-fungal susceptibility testing of these anti-fungal compounds was done by broth dilution method using RPMI 1640 medium with MOPS buffer. Known anti-fungal agents like fluconazole and amphotericin-B were used as positive control. End points were determined after 48 hours visually and by using spectrophotometer wherever necessary. Different dilutions were tried and various sets of experiments performed. The activity parameters are enumerated in Table 5.

Assay [5] deals with F. proliferatum ATCC 10052. Type of assay: cell-based, Fusarium proliferatum. Particulars: Fusarium proliferatum, ATCC10052, RPMI 1640 with MOPS, end point 48 hours, read-out: Fp01 MIC50. The method, then: as §1
For assay [6], the system named is C. glabrata ATCC 90030. Type of assay: cell-based. The settings on record: Nakaseomyces glabratus, ATCC90030, RPMI 1640 with MOPS, end point 48 hours, read-out: Cg01 MIC50.
For assay [7], the system named is C. krusei ATCC 6258. Type of assay: cell-based. Particulars: Pichia kudriavzevii, ATCC6258, RPMI 1640 with MOPS, end point 48 hours, read-out: Ck01 MIC50.
The test system of assay [8] is C. albicans ATCC 24433. Type of assay: cell-based, Candida albicans. The settings on record: Candida albicans, ATCC24433, RPMI 1640 with MOPS, end point 48 hours; for MIC80: read-out: Ca01 A: MIC80; for MIC50: read-out: Ca01 B: MIC50. The method, then:
as §1

Converted amounts (≈) assume the structure as drawn. A value given as a limit tells only on which side of the number the result lay.

As a reminder, the MIC50 is an inhibitory concentration at the 50% level, which refers to growth in some studies and to a panel of isolates in others. What is called MIC80 is an inhibitory concentration at the 80% level, which refers to growth in some studies and to a panel of isolates in others. For `Cn1cc(/C=C/C(=O)c2ccc(OCC(O)(Cn3cncn3)c3ccc(F)cc3F)cc2)c2ccccc21` (stereo not drawn) [Compound 1A-16], the MIC50 was 4 µg/mL (≈ 7.77 µM) in assay [1]; above 4 µg/mL in assay [2]; 2 µg/mL (≈ 3.89 µM) in assay [3]; above 4 µg/mL in assay [4]; above 4 µg/mL in assay [5]; 2 µg/mL (≈ 3.89 µM) in assay [6]. Further, the MIC50 in assay [7] was above 4 µg/mL; in assay [8] it was 0.25 µg/mL (≈ 0.486 µM). In addition, the MIC80 in assay [8] came to 0.5 µg/mL (≈ 0.972 µM).

On to `O=C(/C=C/c1cccs1)c1ccc(OCC(O)(Cn2cncn2)c2ccc(F)cc2)cc1` (stereo not drawn) [Compound 1A-17], for which the MIC50 in assay [1] is 1 µg/mL (≈ 2.22 µM); in assay [2], above 8 µg/mL; in assay [3], 2 µg/mL (≈ 4.45 µM); in assay [4], above 8 µg/mL; in assay [5] it was above 8 µg/mL; in assay [6] it was 0.25 µg/mL (≈ 0.556 µM). Moreover, the MIC50 in assay [7] stood at 8 µg/mL (≈ 17.8 µM); in assay [8], 0.25 µg/mL (≈ 0.556 µM). The MIC80 in assay [8] turned out to be 0.5 µg/mL (≈ 1.11 µM).

With `C=CCOC(COc1ccc(C(=O)/C=C/c2ccc(Cl)cc2Cl)cc1)(Cn1cncn1)c1ccc(F)cc1F` (stereo not drawn) [Compound 1A-18, (E)-1-(4-(2-(Allyloxy)-2-(2,4-difluorophenyl)-3-(1H-1,2,4-triazol-1-yl)propoxy)phenyl)-3-(2,4-dichlorophenyl)prop-2-en-1-one], the MIC50 in assay [1], in assay [2], in assay [3], in assay [4], in assay [5] and in assay [6] was above 4 µg/mL throughout. In addition, the MIC50 in assay [7] and in assay [8] was above 4 µg/mL in each case. Besides, the MIC80 in assay [8] is above 4 µg/mL.

For `COC(COc1ccc(C(=O)/C=C/c2ccc(Cl)cc2Cl)cc1)(Cn1cncn1)c1ccc(F)cc1F` (stereo not drawn) [Compound 1A-19, (E)-3-(2,4-dichlorophenyl)-1-(4-(2-(2,4-difluorophenyl)-2-methoxy-3-(1H-1,2,4-triazol-1-yl)propoxy)phenyl)prop-2-en-1-one], the MIC50 in assay [1] is above 4 µg/mL; in assay [2], above 4 µg/mL; in assay [3], above 4 µg/mL; in assay [4] it was above 4 µg/mL; in assay [5], above 4 µg/mL; in assay [6] it was 1 µg/mL (≈ 1.84 µM). In addition, the MIC50 in assay [7] was above 4 µg/mL; in assay [8], 1 µg/mL (≈ 1.84 µM). Also, the MIC80 in assay [8] was above 4 µg/mL.

For the compound `COc1ccc(C(=O)/C=C/c2ccc(OCC(O)(Cn3cncn3)c3ccc(F)cc3F)cc2)cc1` (stereo not drawn) [Compound 1A-20], the MIC50 in assay [1] is 1 µg/mL (≈ 2.03 µM); in assay [2], 8 µg/mL (≈ 16.3 µM); in assay [3] it was 1 µg/mL (≈ 2.03 µM); in assay [4], above 4 µg/mL; in assay [5], above 4 µg/mL; in assay [6], 0.25 µg/mL (≈ 0.509 µM). The MIC50 in assay [7] stood at 4 µg/mL (≈ 8.14 µM); in assay [8], 0.12 µg/mL (≈ 0.244 µM). The MIC80 in assay [8] was 0.25 µg/mL (≈ 0.509 µM).

Take `Cc1ccc(C(=O)/C=C/c2ccc(OCC(O)(Cn3cncn3)c3ccc(F)cc3F)cc2)cc1` (stereo not drawn) [Compound 1A-21]: the MIC50 in assay [1] is 1 µg/mL (≈ 2.1 µM); in assay [2], 8 µg/mL (≈ 16.8 µM); in assay [3], 1 µg/mL (≈ 2.1 µM); in assay [4], above 4 µg/mL; in assay [5], above 4 µg/mL; in assay [6], 0.25 µg/mL (≈ 0.526 µM). For the same compound, the MIC50 in assay [7] turned out to be 2 µg/mL (≈ 4.21 µM); in assay [8], 0.12 µg/mL (≈ 0.252 µM). In addition, the MIC80 in assay [8] stood at 0.25 µg/mL (≈ 0.526 µM).

In the case of `O=C(/C=C/c1ccc(OCC(O)(Cn2cncn2)c2ccc(F)cc2F)cc1)c1ccc(Cl)cc1Cl` (stereo not drawn) [Compound 1A-22], the MIC50 was 1 µg/mL (≈ 1.89 µM) in assay [1]; above 4 µg/mL in assay [2]; 1 µg/mL (≈ 1.89 µM) in assay [3]; above 4 µg/mL in assay [4]; above 4 µg/mL in assay [5]; 0.5 µg/mL (≈ 0.943 µM) in assay [6]. The MIC50 was determined as 2 µg/mL (≈ 3.77 µM) in assay [7] and 0.12 µg/mL (≈ 0.226 µM) in assay [8]. Besides, in assay [8], the MIC80 was determined as 0.25 µg/mL (≈ 0.471 µM).

For the compound `COc1ccc(C(=O)/C=C/c2ccc(OCC(O)(Cn3cncn3)c3ccc(F)cc3F)c(OC)c2)cc1` (stereo not drawn) [Compound 1A-23], the MIC50 in assay [1] was 1 µg/mL (≈ 1.92 µM); in assay [2], above 4 µg/mL; in assay [3], 0.5 µg/mL (≈ 0.959 µM); in assay [4] it was above 4 µg/mL; in assay [5], above 4 µg/mL; in assay [6], 1 µg/mL (≈ 1.92 µM). Also, the figures for the MIC50 in assay [7] and in assay [8] were 2 µg/mL (≈ 3.83 µM) and 0.5 µg/mL (≈ 0.959 µM), respectively. In addition, the MIC80 in assay [8] stood at 0.5 µg/mL (≈ 0.959 µM).

The record behind these values is patent US9512087B2, “Hybrid molecules containing pharmacophores of fluconazole as antifungal agents and their preparation” (Council for Scientific & Industrial Research, priority 2011, dated 2016).
